Test results: patent US12691141B2, “Use of micro- and nano-MgH2 compound particles in inhibition of leishmania infection and treatment of leishmaniasis” (SHANGHAI JIAO TONG UNIVERSITY, priority 2020, dated 2026)

Experiments:
[1] = existing studies; cited from earlier work
[2] = system: Leishmania; experiment: Cure time of skin/mucosal ulcer and impaired organ function caused by Leishmania; details: in vivo
[3] = system: Leishmaniabraziliensis; experiment: Skin ulceration of Leishmania-infected hamsters; assay type: in vivo, hamsters (Mesocricetus auratus); details: 200 μg/mL subcutaneous injection at ulcer site 100 μL/mouse/d
Experimental: 2) Research on the treatment with micro- and nano-MgH2 compound particles: • 2.1 MgH2 compound particles with a particle diameter of 100 nm to 1,000 nm were first dissolved in a phosphoric acid buffer to prepare 5 concentration groups (1 mg/100 uL, 3 mg/100 uL, 5 mg/100 uL, 10 mg/100 uL, and 15 mg/100 uL). • 2.2 A Leishmaniabraziliensis-infected mouse model was established, which was specified as follows:
Various hamsters (Mesocricetus auratus) were selected, the lower dorsal margin was shaved, and Leishmania (1 million/100 uL/mouse) was injected subcutaneously at 2 cm of an upper margin of a tail. […] MgH2 compound particles (with a particle size of 100 nm to 1,000 nm) at different concentrations (100 uL) were smeared to a skin lesion of an infected hamster once every 24 h continuously for 14 d. An untreated group (namely, a blank control group, infected mice were not treated) and an antimony preparation subcutaneous injection group (sodium antimony gluconate (5-valent antimony preparation, 200 μg/mL) was injected subcutaneously at an ulcer site 100 μL/mouse/d) were set.

sodium antimony gluconate [Antimony preparation]
side effects [1]: serious liver and kidney function damage
cure time [2]: 1 to 3 months
Healing rate of a skin ulceration wound ([3]; day 0): 0%
Healing rate of a skin ulceration wound ([3]; day 3): 15.3 ± 2.0%
Healing rate of a skin ulceration wound ([3]; day 7): 75.2 ± 4.8%
Healing rate of a skin ulceration wound ([3]; day 14): 88.9 ± 5.1%
